# Experimental data as given in patent publication US11241398B2, “Affinity medicant conjugate” (Califia Pharma Inc., priority 2014, dated 2022).
# Where two headings read alike, the source gives them in different places. Marks after values point to notes of the source that are not given here. Residues, ends and D or L forms follow the SMILES beside them. *: point of attachment. X3 = CC1=C(C*)C2=C(C)C3(CC3)C(C)(O)C(=O)C2=C1
# Tests used:
# MV522 cell line [1] = assay: two hour toxicity: inhibition of 50% of DNA synthesis activity, target cell line; conditions: for cytotoxicity (in words): see Table XV; for IC50: read-out: Mean IC50 value, MV522 Target Cell Line, 2 hr exposure, MV522 target cell line, 2 hr exposure, mean ± SD, N = 3 unless otherwise indicated
# Protocol: (§1) The MV522 cell line is a lung-derived adenocarcinoma cell line. In various embodiments of the invention, the MV522 cell line represents a “target” cell line. […] The two hour toxicity data represents the concentration of a given analog for which a two hour exposure will inhibit 50% of the DNA synthesis activity in a given cell line. The 48 hour exposure data represents the concentration at which a given analog with a 48 hour exposure will inhibit the growth or viability in a given cell line as defined by the standard Trypan Blue Exclusion assay.
# 8392B cell line [2] = assay: two hour toxicity: inhibition of 50% of DNA synthesis activity, nontarget cell line; format: cell-based; conditions: read-out: Mean IC50 value, 8392B Nontarget Cell Line, 2 hr exposure, mean ± SD, N = 3 unless otherwise indicated
# Protocol: as §1
# MV522 cell line [3] = assay: 48 hour exposure, growth or viability by Trypan Blue Exclusion assay, target cell line; format: cell-based; conditions: read-out: Mean IC50 value, MV522 Target Cell Line, 48 hr exposure, mean ± SD, N = 3 unless otherwise indicated
# Protocol: as §1
# 8392B cell line [4] = assay: 48 hour exposure, growth or viability by Trypan Blue Exclusion assay, nontarget cell line; format: cell-based; conditions: for IC50: read-out: Mean IC50 value, 8392B Nontarget Cell Line, 48 hr exposure, 8392B nontarget cell line, 48 hr exposure, mean ± SD, N = 3 unless otherwise indicated
# Protocol: as §1
# [5] = test system: NCI-DTP 60 cell line panel; conditions: cited from earlier work
# MCF7 (ER positive) = assay: cytotoxic data IC50, 2 hour exposure, cells expressing the estrogen receptor; format: cell-based; conditions: for preferential killing of MCF7 (ER positive) versus ER negative cells: Table VII
# Text: (§2) MCF7 over express estrogen alpha-receptors.
# (§3) MCF7 cells over express estrogen alpha-receptors.
# [6] = test system: hormone-refractory prostate cancer; conditions: cited from earlier work
# MDR phenotypes = assay: multidrug resistance studies (mechanisms of drug resistance); format: cell-based; conditions: multi-medicant resistance phenotype, Bcl-2 over expression, p53 and p21/WAF1 mutations
# HT29 (ER Negative) = assay: cytotoxic data IC50, 2 hour exposure, cells not expressing the estrogen receptor; format: cell-based; conditions: N = 3, mean ± SD
# Text: as §2, §3
smiles,measurement,setting,value
CC1=C(CN2C(=O)C=CC2=O)C2=C(C)C3(CC3)[C@@](C)(O)C(=O)C2=C1 [Analog 189],cytotoxicity (in words),MV522 cell line [1],cytotoxic with nM activity
COC(=O)C1=C(C(=O)OC)C23C=C(C)C1C2=C(C)C1(CC1)C(C)(O)C3O (stereo not shown) [Analog 141],IC50,8392B cell line [2],13.7 ± 1.9 µM
same,IC50,MV522 cell line [3],3.7 ± 0.8 µM
CC1=C2C(=C[C@@](C)(CO[Si](C)(C)C(C)(C)C)[C@@H]2OC(=O)c2ccc(S(=O)(=O)F)cc2)C(=O)[C@](C)(O)C12CC2 [Analog 219],IC50,8392B cell line [4],> 52 µM
same,IC50,8392B cell line [2],> 52 µM
same,IC50,MV522 cell line [1],> 52 µM
CC1=C(CCCNS(N)(=O)=O)C2=CC3(CC3)C(C)(O)C(=O)C2=C1 (stereo not shown) [Analog 264],IC50,8392B cell line [2],> 85 µM
same,IC50,MV522 cell line [3],0.076 ± 0.017 µM
CC1=C(CSCCC(N)C(=O)O)C2=C(C)C3(CC3)[C@@](C)(O)C(=O)C2=C1 (stereo partly shown) [Analog 097],IC50,8392B cell line [2],> 82 µM
"CC1=C2C(=CC(C)(C)[C@@H]2O)C(=O)[C@](C)(O)C12CC2 [Illudin M, reference compound]",Mean LD50 cytotoxic,[5]; NCI DTP 60 cell line mean,912 nM
same,preferential killing of MCF7 (ER positive) versus ER negative cells,MCF7 (ER positive),to the same extent
CC1=C(CCCN2C(=O)C=CC2=O)C2=C(C)C3(CC3)[C@@](C)(O)C(=O)C2=C1 [Analog 190],cytotoxicity (in words),MV522 cell line [1],cytotoxic with nM activity
CC1=C(CCC(=O)OC2CCC3(C)C(CCC4C5CCC(=O)C5(C)CCC43)C2)C2=C(C)C3(CC3)[C@@](C)(O)C(=O)C2=C1 (stereo partly shown) [Analog 112],IC50,8392B cell line [4],5.2 ± 0.3 µM
same,IC50,8392B cell line [2],14.9 ± 0.1 µM
CC1=C(OC(=O)CCCCC(=O)c2ccccc2)C2=C(C)C3(CC3)[C@@](C)(O)C(=O)C2=C1 [Analog 158],IC50,8392B cell line [2],> 200 µM
same,IC50,MV522 cell line [1],> 175 µM
CC1=C2C(=O)C(C)(CO)C=C2C(=O)C(C)(O)C12CC2 (stereo not shown) [Analog 099],IC50,8392B cell line [2],4 ± 0.4 µM
same,IC50,MV522 cell line [1],8.4 ± 1.1 µM
CC1=C(CSC[C@@H](C)C(=O)N2CCCC2C(=O)O)C2=C(C)C3(CC3)[C@@](C)(O)C(=O)C2=C1 (stereo partly shown) [Analog 098],IC50,8392B cell line [4],11.7 ± 1.8 µM
same,IC50,8392B cell line [2],> 65 µM
same,IC50,MV522 cell line [1],18.8 ± 2.5 µM
same,IC50,MV522 cell line [3],4.6 ± 0.25 µM
CC(=O)ON(C(C)=O)c1ccc(C(=O)OCC2(C)C=C3C(=O)C(C)(O)C4(CC4)C(C)=C3C2O)cc1 (stereo not shown) [Analog 136],IC50,8392B cell line [2],> 6.2 µM
CC1=CC2C(=C(C)C3(CC3)C(C)(O)C2O)C1=O (stereo not shown) [Analog 186],IC50,MV522 cell line [1],144 ± 32 µM
same,IC50,MV522 cell line [3],70 ± 16 µM
CC1=C2C(=CC(C)(C)[C@@H]2OC(=O)CCCC(=O)Oc2ccc3c(c2)CC[C@@H]2[C@@H]3CC[C@]3(C)C(=O)CC[C@@H]23)C(=O)[C@](C)(O)C12CC2 [Analog 107],IC50,8392B cell line [2],> 50 µM
same,IC50,MV522 cell line [1],> 50 µM
CC1=C2C(=O)C(C)(OC(C)C)CC2C(O)C(=O)C12CC2 (stereo not shown) [Analog 183],IC50,8392B cell line [4],> 235 µM
same,IC50,8392B cell line [2],> 120 µM
same,IC50,MV522 cell line [1],> 120 µM
CC1=CC2=C(C)C3(CC3)C(C)(O)C(=NO)C2=C1 (stereo not shown) [Analog 224],differential toxicity between the target and nontarget cell line,MV522 cell line [1]; MV522 versus 8392B,no differential toxicity
same,toxicity (in words),MV522 cell line [1]; target and nontarget cell line,minimal toxicity
"CC1=C(CO)C2=C(C)C3(CC3)[C@@](C)(O)C(=O)C2=C1 [Irofulven, 6-hydroxymethylacylfulvene]",clinical activity,[6],demonstrated clinical activity
same,safety profile,[6],acceptable safety profile
same,activity versus common resistance mechanisms,MDR phenotypes,independent of common resistance mechanisms
CON(CC1=C(C)C=C2C(=O)[C@](C)(O)C3(CC3)C(C)=C21)C(=O)C(N)Cc1c[nH]c2ccccc12 (stereo partly shown) [Analog 154],IC50,8392B cell line [2],> 70 µM
same,IC50,MV522 cell line [1],> 70 µM
CC1=C2[C@@H](O)C(C)(C)[C@H]3C[C@@]23C(=O)[C@](C)(O)C12CC2 [Analog 252],IC50,8392B cell line [4],> 380 µM
same,IC50,8392B cell line [2],> 380 µM
same,IC50,MV522 cell line [1],> 380 µM
COC(=O)C1=C(C(=O)OC)C23C=C(C)C1C2=C(C)C1(CC1)C(C)(O)C3=O (stereo not shown) [Analog 142],IC50,MV522 cell line [3],0.024 ± 0.007 µM
CC1=C(COC2OC(CO)C(O)C(O)C2O)C2=C(C)C3(CC3)C(C)(O)C(=O)C2=C1 (stereo not shown) [Analog 018],IC50,MV522 cell line [1],8.8 ± 2.9 µM
CC1=C2C(=CC(C)(C)C2OC(=O)CCCC(=O)Oc2ccc3c(c2)CCC2C3CCC3(C)C(O)CCC23)C(=O)C(C)(O)C12CC2 (stereo not shown) [Analog 109],IC50,8392B cell line [2],> 50 µM
same,IC50,MV522 cell line [1],> 50 µM
CC1=C(CCCNC(=O)OCC2=C(C(=O)O)N3C(=O)C(NC(=O)Cc4cccs4)C3S(=O)(=O)C2)C2=C(C)C3(CC3)C(C)(O)C(=O)C2=C1 (stereo not shown) [Analog 274],IC50,8392B cell line [4],> 4.5 µM
same,IC50,8392B cell line [2],> 46 µM
C=C1C[C@@H]2CC[C@@]34C[C@H]5O[C@H]6[C@@H](O3)[C@H]3O[C@H](CC[C@@H]3O[C@H]6[C@H]5O4)CC(=O)O[C@@H]3[C@@H](C)[C@@H]4O[C@@H]5C[C@]6(C[C@@H]7O[C@]8(C[C@H](C)[C@@H]9O[C@H]([C@@H](O)C[C@@H](O)CO)C[C@@H]9O8)C[C@H](C)[C@@H]7O6)O[C@@H]5C[C@@H]4O[C@H]3C[C@H]3O[C@@H](CC[C@@H]1O2)C[C@@H](C)C3=C [Halichondrin B],Mean TGI cytostatic,[5]; NCI DTP 60 cell line mean,199 nM
same,Mean LD50 cytotoxic,[5],">1,000 nM"
CC(=O)ON(C(C)=O)c1ccc(C(=O)OCC2(C)C=C3C(=O)C(C)(O)C4(CC4)C(C)=C3C2OC(=O)c2ccc(N(OC(C)=O)C(C)=O)cc2)cc1 (stereo not shown) [Analog 140],IC50,8392B cell line [4],> 14 µM
same,IC50,MV522 cell line [3],> 14 µM
CC1=C(CCC(=O)Oc2ccc3c(c2)CC[C@@H]2[C@@H]3CC[C@]3(C)C(=O)CC[C@@H]23)C2=C(C)C3(CC3)[C@@](C)(O)C(=O)C2=C1 [Analog 110],preferential killing of MCF7 (ER positive) versus ER negative cells,MCF7 (ER positive),preferentially killed
same,IC50,8392B cell line [4],25.3 ± 2.1 µM
same,IC50,8392B cell line [2],> 55 µM
same,IC50,HT29 (ER Negative),> 19 µM
same,IC50,MV522 cell line [1],> 55 µM
CC1=C2C(=CC(C)(COC(=O)c3cc([N+](=O)[O-])cc([N+](=O)[O-])c3)C2OC(=O)CCCC(=O)O)C(=O)C(C)(O)C12CC2 (stereo not shown) [Analog 118],IC50,8392B cell line [2],24.5 ± 4.5 µM
CC1=C2C(=CC(C)(COC(=O)CCCC(=O)O)C2OC(=O)CCCC(=O)O)C(=O)C(C)(O)C12CC2 (stereo not shown) [Analog 117],IC50,8392B cell line [4],0.01 ± 0.002 µM
CC1=C(CSCC(N)C(=O)NC(CC(N)=O)C(=O)NCC(=O)NC(CCCNC(=N)N)C(=O)NC(CS)C(=O)O)C2=C(C)C3(CC3)C(C)(O)C(=O)C2=C1 (stereo not shown) [Analog 102] (H-C(X3)NGRC-OH; configuration not given here),IC50,MV522 cell line [1],> 13 µM
CC(=O)OCC1=C(CO)C=C2C(=O)C(C)(OC(C)=O)C3(CC3)C(C)=C21 (stereo not shown) [Analog 103],IC50,8392B cell line [2],12.1 ± 2 µM
same,IC50,MV522 cell line [1],31.8 ± 4.9 µM
same,IC50,MV522 cell line [3],5.9 ± 0.4 µM
CC1=C2C(=CC(C)(C)[C@@H]2OC(=O)c2ccc(S(=O)(=O)F)cc2)C(=O)[C@](C)(O)C12CC2 [Analog 222],IC50,8392B cell line [2],9.3 µM
CC1=C(CCC(=O)Oc2ccc3c(c2)CCC2C3CCC3(C)C(O)CCC23)C2=C(C)C3(CC3)C(C)(O)C(=O)C2=C1 (stereo not shown) [Analog 108],IC50,"MCF7 (ER positive); N = 3, mean ± SD",14.1 ± 2.8 µM
same,IC50,8392B cell line [2],> 55 µM
same,IC50,HT29 (ER Negative),> 55 µM
same,IC50,MV522 cell line [1],12.3 ± 2.3 µM
same,IC50,MV522 cell line [3],0.52 ± 0.05 µM
CC[C@H](C)[C@@H]([C@@H](CC(=O)N1CCC[C@H]1[C@H](OC)[C@@H](C)C(=O)NCCc1ccccc1)OC)N(C)C(=O)[C@@H](NC(=O)[C@H](C(C)C)N(C)C)C(C)C [Auristatins],Mean LD50 cytotoxic,[5]; NCI DTP 60 cell line mean,">5,000 nM"
same,Mean TGI cytostatic,[5]; NCI DTP 60 cell line mean,902** nM
same,GI50,"[5]; read-out: Mean GI50 inhibition, NCI DTP 60 cell line mean",1.4 nM
CC1=C2C(=CC(C)(CO[Si](C)(C)C(C)(C)C)C2N)C(=O)C(C)(O)C12CC2 (stereo not shown) [Analog 205],IC50,8392B cell line [4],> 2.6 µM
same,IC50,8392B cell line [2],> 185 µM
same,IC50,MV522 cell line [1],8.4 ± 2.2 µM
CC1=C(COC(=O)CCCCCN2C(=O)C=CC2=O)C2=C(C)C3(CC3)[C@@](C)(O)C(=O)C2=C1 [Analog 217],cytotoxicity (in words),MV522 cell line [1],cytotoxic with nM activity
CC1=C2C(=CC(C)(C)[C@@H]2OC(=O)CCCCCN2C(=O)C=CC2=O)C(=O)[C@](C)(O)C12CC2 [Analog 218],IC50,8392B cell line [4],0.6 ± 0.1 µM
same,cytotoxicity (in words),MV522 cell line [1],cytotoxic with nM activity
same,IC50,MV522 cell line [3],0.6 ± 0.2 µM
CC1=C(CO)C2=C(C)C3(CC3)[C@@](C)(O)C(=O)C2=C1 [Analog 002],inhibition of the nontarget cell line with prolonged exposure,8392B cell line [4]; prolonged exposure period (e.g. 48 hours),can eventually inhibit the nontarget cell line
CC1=C(CCCNS(C)(=O)=O)C2=C(C)C3(CC3)[C@@](C)(O)C(=O)C2=C1 [Analog 241],IC50,8392B cell line [2],> 28 µM
